Experimental data from patent publication US11690838B2, “Therapeutic agent for fibrosis” (TAIHO PHARMACEUTICAL CO., LTD., priority 2015, dated 2023).

Tested on: Bleomycin-Induced Mouse Pathology (Lung Fibrosis) Model
Test: Suppression effect on bleomycin-induced mouse pathology (lung fibrosis) model
Assay type: in vivo
Conditions: C57BL mice, bleomycin intratracheal, every day for 35 days; for hydroxyproline amount of lung tissues compared to the control group (pathological condition): FIG. 1; for score of abnormal accumulation of a fibrous tissue in lung tissues (Ashcroft's method) compared to the control group: FIG. 2
Protocol: Test Example 1: Suppression Effect on Bleomycin-Induced Mouse Pathology (Lung Fibrosis) Model
Mice (C57BL, 6 weeks old) were anesthetized by intraperitoneally administrating pentobarbital (50 mg/kg/day), and then bleomycin (20 μg/25 μL per mouse) was intra-tracheally sprayed by a sprayer. A week later, the mice were anesthetized by inhalation of isoflurane, 0.2 mL of blood was taken from the eye orbit of the mice. The blood level of a surfactant protein-D (SP-D) was measured. The mice were divided into groups (9 mice) such that the groups have an equal average SP-D value.
The compound of the present invention was orally administered at each of doses of 100 and 200 mg/kg/day, every day for 35 days. In order to confirm whether a pathological model was established, an untreated group (Normal group) and a Sham group were set up. To the mice of the Sham group, physiological saline was intratracheally sprayed in place of bleomycin. The next day after completion of the final administration, the mice were anesthetized by inhalation of isoflurane and euthanized. Thereafter, the lungs were excised out and subjected to pathological analysis for tissues. Abnormal accumulation of a fibrous tissue was evaluated and the amounts of hydroxyproline in the tissues were measured. The abnormal accumulation of a fibrous tissue was evaluated by using Ashcroft's method (J Clin Pathol 1988; 41: 467-470).
The hydroxyproline amounts of lung tissues of individual groups are shown in FIG. 1 and scores of abnormal accumulation of a fibrous tissue in the lung tissues are shown in FIG. 2. […] From this, it was determined that abnormal accumulation of a fibrous tissue in the lung tissue in mice was induced by bleomycin treatment and pathological models are established.

CNC(=O)c1cc2c(Oc3ccc(NC(=S)NC(=O)Cc4ccccc4)cc3F)ccnc2cc1OC [the compound of the present invention, 4-[2-Fluoro-4-[[[(2-phenylacetyl)amino]thioxomethyl]amino]-phenoxy]-7-methoxy-N-methyl-6-quinolinecarboxamide]
significantly low: hydroxyproline amount of lung tissues compared to the control group (pathological condition) (100 mg/kg/day orally) | score of abnormal accumulation of a fibrous tissue in lung tissues (Ashcroft's method) compared to the control group (100 mg/kg/day orally) | hydroxyproline amount of lung tissues compared to the control group (pathological condition) (200 mg/kg/day orally) | score of abnormal accumulation of a fibrous tissue in lung tissues (Ashcroft's method) compared to the control group (200 mg/kg/day orally)
